Data: ChEMBL document CHEMBL4665700, “Cytotoxic Bufadienolides from the Leaves of Melianthus major” (J Nat Prod, 2020)
pIC50: −log10 of the molar value. The source made the active and inactive calls. The calls are words filed in the database; no cut-off is given here.

How the values were obtained:
Assay type in all cases: functional
MCF7 [1] = test: Cytotoxicity against human MCF7 cells assessed as reduction in cell viability after 72 hrs by resazurin dye-based fluorescence assay; details: MCF7, 72 h
CCRF-CEM [2] = test: Cytotoxicity against human CCRF-CEM cells assessed as reduction in cell viability after 72 hrs by resazurin dye-based fluorescence assay
ADR5000 cell line [3] = test: Cytotoxicity against human CEM/ADR5000 cells assessed as reduction in cell viability after 72 hrs by resazurin dye-based fluorescence assay; details: ADR5000, 72 h
MCF7 [4] = test: Cytotoxicity against human MCF7 cells assessed as reduction in cell viability at 10 uM after 72 hrs by resazurin dye-based fluorescence assay
ADR5000 cell line [5] = test: Cytotoxicity against human CEM/ADR5000 cells assessed as reduction in cell viability at 10 uM after 72 hrs by resazurin dye-based fluorescence assay
CCRF-CEM [6] = test: Cytotoxicity against human CCRF-CEM cells assessed as reduction in cell viability at 10 uM after 72 hrs by resazurin dye-based fluorescence assay

Row | Compound | pIC50 (MCF7 [1]) | pIC50 (CCRF-CEM [2]) | pIC50 (ADR5000 cell line [3]) | Activity (MCF7 [4]) | Activity (ADR5000 cell line [5]) | Activity (CCRF-CEM [6])
1 | C[C@@]12O[C@H]3C[C@@H](O1)[C@]1(C=O)[C@H]4CC[C@]5(C)[C@@H](c6ccc(=O)oc6)CC[C@]5(O)[C@@H]4CC[C@@]1(C3)O2 | 6.00 | 6.70 | 6.70 | – | – | –
2 | C[C@@]12O[C@H]3C[C@@H](O1)[C@]1(C=O)[C@H]4CC[C@]5(C)[C@@H](c6ccc(=O)oc6)[C@@H](O)C[C@]5(O)[C@@H]4CC[C@@]1(C3)O2 | 5.51 | 6.22 | 6.10 | – | – | –
3 | CC(=O)O[C@H]1C[C@]2(C=O)[C@H]3CC[C@]4(C)[C@@H](c5ccc(=O)oc5)CC[C@]4(O)[C@@H]3CC[C@]2(OC(C)=O)C[C@H]1OC(C)=O | 6.52 | 7.00 | 7.00 | – | – | –
4 | COc1cccc2c1C(=O)c1c(O)c3c(c(O)c1C2=O)C[C@@](O)(C(=O)CO)C[C@@H]3O[C@H]1C[C@H](N)[C@H](O)[C@H](C)O1 [DOXORUBICIN] | 6.74 | 7.70 | – | – | – | –
5 | C[C@@]12O[C@H]3C[C@@H](O1)[C@]1(C=O)[C@H]4CC[C@@]5(C)[C@@H]([C@@H]4CC[C@@]1(C3)O2)[C@@H]1O[C@@H]1[C@@H]5c1ccc(=O)oc1 | 5.35 | 5.80 | 5.80 | – | – | –
6 | CC(=O)O[C@H]1[C@H]2O[C@@]3(C)O[C@@H]1C[C@]1(CC[C@H]4[C@H]5[C@@H]6O[C@@H]6[C@H](c6ccc(=O)oc6)[C@@]5(C)CC[C@@H]4[C@@]21C=O)O3 | 5.37 | 5.80 | 5.74 | – | – | –
7 | CC(=O)OC[C@]12[C@@H]3OC4(C)O[C@H](C[C@]1(CC[C@@H]1[C@@H]2CC[C@]2(C)[C@@H](c5ccc(=O)oc5)[C@H]5O[C@H]5[C@]12O)O4)[C@H]3OC(C)=O | – | – | – | inactive | inactive | inactive
8 | CC(=O)OC[C@]12[C@H]3C[C@H]4C[C@]1(CC[C@@H]1[C@@H]2CC[C@]2(C)[C@@H](c5ccc(=O)oc5)CC[C@]12O)OC(C)(O4)O3 | – | – | – | inactive | inactive | inactive
9 | CC(=O)O[C@H]1C[C@]2(C=O)[C@H]3CC[C@]4(C)[C@@H](c5ccc(=O)oc5)CC[C@]4(O)[C@@H]3CC[C@]2(O)C[C@H]1OC(C)=O | 5.46 | 6.30 | 6.30 | – | – | –
10 | CC(=O)OC[C@]12[C@@H]3OC4(C)O[C@H](C[C@]1(CC[C@@H]1[C@@H]2CC[C@]2(C)[C@@H](c5ccc(=O)oc5)CC[C@]12O)O4)[C@H]3O | – | – | – | inactive | inactive | inactive
